We go through two molecules from US20140066324A1, “GENE EXPRESSION SIGNATURE IN SKIN PREDICTS RESPONSE TO MYCOPHENOLATE MOFETIL” (NORTHWESTERN UNIVERSITY, priority 2011, published 2014).

One test concerns skin fibrosis. Description: Morphology of skin biopsy specimens, H&E staining of paraffin embedded sections. The class given is in vivo, human. Here is the method: Patients seen at the Northwestern Scleroderma Program who met American College of Rheumatology criteria for SSc with a mRSS≧16 and would be receiving mycophenolate mofetil for the indication of progressive skin tightening were assessed. All patients provided written informed consent in accordance with the Institutional Review Board Guidelines of Northwestern University. Patients underwent a standardized physical exam, including mRSS performed by one clinician at study entry (prior to treatment) and at 6 months and 12 months post MMF initiation. […] from clinically involved skin (forearm) and clinically uninvolved skin (back) from the non-dominant side of the body. Two biopsies (one from forearm and back) were placed in RNAlater® (Applied Biosystems, Ambion®, Carlsbad, Calif., U.S.A.) and used for DNA microarray analysis and the other biopsy was placed in 10% neutral buffered formalin and used for histological analyses.
To confirm the physical exam finding of softened skin in MMF-responders, the morphology of skin biopsy specimens was examined using routine H&E staining of paraffin embedded sections.

For test [1] the following is noted: SSc patients; cited from earlier work.

Take `COc1c(C)c2c(c(O)c1C/C=C(\C)CCC(=O)OCCN1CCOCC1)C(=O)OC2` [MMF, mycophenolate mofetil]: the “extent of skin fibrosis, pre- vs post-treatment biopsies” value in the test on skin fibrosis (MMF responders) is “clear differences in the extent of fibrosis between pre- and post-treatment biopsies in responders”. In addition, the “skin fibrosis and dermal appendages” value in the test on skin fibrosis (MMF-nonresponder) is “greater degree in skin fibrosis and a further loss of the normal dermal appendages”. In the case of rituximab, the clinical response entry in test [1] is reported as “no clinical benefit”.
